The values below come from patent publication US20090306392A1, “GSM INTERMEDIATES” (priority 2007, published 2009).

The first assay relates to γ-secretase. As to the kind of experiment: Screening for γ-secretase-modulating activity in SKNBE2 cells carrying APP 695-wild type. Format: cell-based. Conditions: 0.3 uM; SKNBE2 cells carrying the APP 695-wild type.
Consider `CC(C)CC(C(=O)O)c1cc(-c2ccc(C(F)(F)F)cc2)cc(C2CCN(Cc3ccc(C(F)(F)F)cc3)CC2)c1` (stereo not drawn) [Example 31, 4-Methyl-2-{4′-trifluoromethyl-5-[1-(4-trifluoromethyl-benzyl)-piperidin-4-yl]-biphenyl-3-yl}-pentanoic Acid], for which the “% @ 0.3 uM (WTAPP)” value amounted to 8% @ 0.3 uM.

Staying with this assay, now noted: SKNBE2 cells carrying the APP 695-wild type; read-out: EC 50 WTAPP.
In the case of `CC(C)CC(C(=O)O)c1cc(/C=C/c2ccc(-c3ccccc3)cc2)cc(-c2ccc(C(F)(F)F)cc2)c1` (stereo not drawn) [Example 23, 2-[5-(2-Biphenyl-4-yl-vinyl)-4′-trifluoromethyl-biphenyl-3-yl]-4-methyl-pentanoic Acid], the EC50 was found to be 140 nM.

With `CC(C)CC(C(=O)O)c1cc(CCc2ccc(-c3ccccc3)cc2)cc(-c2ccc(C(F)(F)F)cc2)c1` (stereo not drawn) [Example 24, 2-[5-(2-Biphenyl-4-yl-ethyl)-4′-trifluoromethyl-biphenyl-3-yl]-4-methyl-pentanoic Acid], the EC50 came to 210 nM.

With `CC(C)CC(C(=O)O)c1cc(NC(=O)c2cccc(C(F)(F)F)c2)cc(-c2ccc(C(F)(F)F)cc2)c1` (stereo not drawn) [Example 25, 4-Methyl-2-[4′-trifluoromethyl-5-(3-trifluoromethyl-benzoylamino)-biphenyl-3-yl]-pentanoic Acid], the EC50 amounted to 1790 nM.

`CC(C)CC(C(=O)O)c1cc(-c2ccc(C(F)(F)F)cc2)cc(C2CCCC(C(F)(F)F)N2)c1` (stereo not drawn) [Example 27, 4-Methyl-2-[4′-trifluoromethyl-5-(6-trifluoromethyl-piperidin-2-yl)-biphenyl-3-yl]-pentanoic Acid]: the EC50 is 700 nM.

As for `CC(C)CCN1C(c2cc(-c3ccc(C(F)(F)F)cc3)cc(C(CC(C)C)C(=O)O)c2)CCCC1C(F)(F)F` (stereo not drawn) [Example 28, 4-Methyl-2-{5-[1-(3-methyl-butyl)-6-trifluoromethyl-piperidin-2-yl]-4′-trifluoromethyl-biphenyl-3-yl}-pentanoic Acid], the EC50 was 110 nM.

As for `CC(C)CCN(Cc1cc(-c2ccc(C(F)(F)F)cc2)cc(C(CC(C)C)C(=O)O)c1)Cc1cc(F)c(F)c(F)c1` (stereo not drawn) [Example 29, 4-Methyl-2-(5-{[(3-methyl-butyl)-(3,4,5-trifluoro-benzyl)-amino]-methyl}-4′-trifluoromethyl-biphenyl-3-yl)-pentanoic Acid], the EC50 was 270 nM.

`CC(C)CCN(Cc1cc(-c2ccc(C(F)(F)F)cc2)cc(C(CC(C)C)C(=O)O)c1)Cc1cc(C(F)(F)F)cc(C(F)(F)F)c1` (stereo not drawn) [Example 30, 2-(5-{[(3,5-Bis-trifluoromethyl-benzyl)-(3-methyl-butyl)-amino]-methyl}-4′-trifluoromethyl-biphenyl-3-yl)-4-methyl-pentanoic Acid]: the EC50 came out at 250 nM.

On to `CC(C)CCC(c1ccc(C(F)(F)F)cc1)N1CCC(c2cc(-c3ccc(C(F)(F)F)cc3)cc(C(CC(C)C)C(=O)O)c2)CC1` (stereo not drawn) [Example 32, 4-Methyl-2-(5-{1-[4-methyl-1-(4-trifluoromethyl-phenyl)-pentyl]-piperidin-4-yl}-4′-trifluoromethyl-biphenyl-3-yl)-pentanoic Acid], for which the EC50 is 2080 nM.

In the case of `CC(C)CC(C(=O)O)c1cc(NC2CCC(C(C)(C)C)CC2)cc(-c2ccc(C(F)(F)F)cc2)c1` (stereo not drawn) [Example 33, 2-[5-(4-tert-Butyl-cyclohexylamino)-4′-trifluoromethyl-biphenyl-3-yl]-4-methyl-pentanoic Acid], the EC50 was found to be 64 nM.

As for `CC(C)CCC(Nc1cc(-c2ccc(C(F)(F)F)cc2)cc(C(CC(C)C)C(=O)O)c1)c1cc(F)cc(F)c1` (stereo not drawn) [Example 34, 2-{5-[1-(3,5-Difluoro-phenyl)-4-methyl-pentylamino]-4′-trifluoromethyl-biphenyl-3-yl}-4-methyl-pentanoic Acid], the EC50 came to 330 nM.

With `CC(C)CC(C(=O)O)c1cc(-c2ccc(C(F)(F)F)cc2)cc(C2CCCN(Cc3ccc(C(F)(F)F)cc3)C2)c1` (stereo not drawn) [Example 36, 4-Methyl-2-{4′-trifluoromethyl-5-[1-(4-trifluoromethyl-benzyl)-piperidin-3-yl]-biphenyl-3-yl}-pentanoic Acid], the EC50 worked out at 510 nM.

As to `CC(C)CCC(Nc1cc(-c2ccc(C(F)(F)F)cc2)cc(C(CC(C)C)C(=O)O)c1)c1cc(C(F)(F)F)cc(C(F)(F)F)c1` (stereo not drawn) [Example 39, 2-{5-[1-(3,5-Bis-trifluoromethyl-phenyl)-4-methyl-pentylamino]-4′-trifluoromethyl-biphenyl-3-yl}-4-methyl-pentanoic Acid], the EC50 was 220 nM.

`CC(C)CCN(Cc1cc(F)cc(F)c1)c1cc(-c2ccc(C(F)(F)F)cc2)cc([C@@H](CC(C)C)C(=O)O)c1` [Example 40, 2-{5-[(3,5-Difluoro-benzyl)-(3-methyl-butyl)-amino]-4′-trifluoromethyl-biphenyl-3-yl}-4-methyl-pentanoic Acid]: the EC50 is 190 nM.

For the compound “(S*)4-Methyl-2-(5-{1-[4-methyl-1-(4-trifluoromethyl-phenyl)-pentyl]-piperidin-3-yl}-4′-trifluoromethyl-biphenyl-3-yl)-pentanoic Acid [Example 38]”, the EC50 worked out at 450 nM.
